Data: patent US7169763B2, “Cytochrome P450 3A inhibitors and enhancers” (priority 2002, dated 2007)

How the values were obtained:
CYP3A = tested on: CYP3A; set-up: CYP3A Activity (percentage of control): dose or concentration left out as unconfirmed
[1] = given by mouth; cited from earlier work

Structure (SMILES)	inhibitory effects on rat liver CYP3A (in words) (CYP3A)	CYP3A Activity (percentage of control) (CYP3A; rat, 15 min, 10.22)	fraction of active ingredient quickly changed to metabolites [1]
O=C/C=C/c1ccccc1 [Trans-cinnamaldehyde]	particularly effective	30.95 ± 1.03 percentage of control	
CC(C)(C)c1ccc(C(O)CCCN2CCC(C(O)(c3ccccc3)c3ccccc3)CC2)cc1 (stereo not drawn) [terfenadine]			99.5%
